The target in this assay is OTU domain-containing protein 3 (Homo sapiens) (UniProt Q5T2D3). Description: Validation of screening hits, potency titration, in vitro enzymatic, OTU domain-containing protein 3 DUB inhibitors (AID 1645868). The note with it: purified OTUD3, ubiquitin-rhodamine cleavage fluorescence, 2 h.

SMILES strings stand for the structures. Calls of active or inactive are those of the source.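 Rule for the calls: active = maximal percent inhibition of the deubiquitinase OTUD3 of at least 30% across the tested doses; inactive = the rest.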

These results are taken from PubChem BioAssay AID1645868 (Buhrlage Lab, Dana-Farber Cancer Institute and Novartis …, 2021).

OTU domain-containing protein 3 (Homo sapiens), sequence (Q5T2D3 whole entry, looked up, the tested form may be a part): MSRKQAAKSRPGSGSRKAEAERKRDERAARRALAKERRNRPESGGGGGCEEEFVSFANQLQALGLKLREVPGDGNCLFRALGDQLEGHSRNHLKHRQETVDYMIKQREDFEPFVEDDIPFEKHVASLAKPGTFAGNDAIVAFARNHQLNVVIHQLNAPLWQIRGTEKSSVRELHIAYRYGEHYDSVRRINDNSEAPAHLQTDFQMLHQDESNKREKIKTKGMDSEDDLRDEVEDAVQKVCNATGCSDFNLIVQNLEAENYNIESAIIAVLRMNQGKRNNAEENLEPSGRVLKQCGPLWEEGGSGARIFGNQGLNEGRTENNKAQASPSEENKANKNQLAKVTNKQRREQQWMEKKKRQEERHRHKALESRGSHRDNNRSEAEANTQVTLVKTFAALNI

Usually IC50 stands for the concentration that inhibits the measured activity by half. With `CC(C)(C)C(=O)NC(c1ccccc1)c1nnc(N2CCOCC2)o1` (stereo not given), the IC50 was > 50 µM (inactive).
`Cc1noc(C)c1S(=O)(=O)Nc1ccc(C(=O)Nc2ccc3c(c2)OCCO3)cc1`: the IC50 is > 50 µM (inactive).
Then `c1ccc(-n2nnc(-c3noc(-c4ccccn4)n3)c2-c2ccncc2)cc1`, with 38.7 µM.
Regarding `O=C(CC1C(=O)N(Cc2ccccc2)c2nc3ccccc3n21)NCCc1ccccc1` (stereo not given), the IC50 was 19.7 µM.
With `CC(=O)Nc1ccc(S(=O)(=O)NCc2ccc(C(=O)NCCc3ccc(Cl)cc3)cc2)cc1`, the IC50 was 11.8 µM.
The same measure for `O=C(Nc1cc(Cl)cc(Cl)c1)c1csnn1`: 32.8 µM; for `Cc1ccccc1NC(=O)c1ccn(COc2ccc(Cl)cc2)n1`: > 50 µM (inactive); for `Cc1cc(C)cc(NC(=O)CN2C(=O)CC(c3ccccc3)Sc3ccccc32)c1` (stereo not given): > 50 µM (inactive).
The same measure for `CC(C)=CCCC1(C)OC2=C(C(=O)c3cc(O)cc(O)c3C2=O)[C@H]2C=C(C)CC[C@H]21` (stereo not given in full): > 50 µM (inactive).
The same measure for `Fc1ccccc1Cc1nc(-c2ccc3nncn3c2)no1`: > 50 µM (inactive); for `Fc1ccc(Cc2nc(-c3ccc4nncn4c3)no2)cc1`: > 50 µM (inactive); for `CC(Nc1ncnc2c1sc1nc(N3CCOCC3)c3c(c12)CCC3)c1ccccc1` (stereo not given): > 50 µM (inactive).
With `O=C(NCc1ccccc1)c1ccc2c(=O)n(-c3ccccc3)c(=O)[nH]c2c1`, the IC50 was 38.1 µM.
The same measure for `COc1cccc(N2CCN(C(=O)CCNS(=O)(=O)c3ccc4c(c3)CCC(=O)N4)CC2)c1`: > 50 µM (inactive).
The same measure for `COc1ccc(C2C(C(=O)C(C)(C)C)N3c4ccccc4C=CC3C23C(=O)c2ccccc2C3=O)c(OC)c1` (stereo not given): > 50 µM (inactive); for `O=c1[nH]c(C2CCN(S(=O)(=O)c3ccc(S(=O)(=O)NC4CCCC4)cc3)CC2)nc2c1nnn2Cc1cccc(Cl)c1`: > 50 µM (inactive).
The same measure for `O=c1ccc(-c2noc(Cc3cccc(Cl)c3)n2)c[nH]1`: > 50 µM (inactive); for `Cc1c(C)c2ccc(OCC(=O)NCc3ccncc3)c(C)c2oc1=O`: > 50 µM (inactive).
For `O=C1C[C@@H](O)[C@H](O)[C@@]23O[C@@]12C1(Oc2cccc4cccc(c24)O1)[C@@H]1O[C@@H]1[C@@H]3O`, the IC50 was 41.3 µM.
The same measure for `COc1ccc(OC)c(-c2c(C#N)c(C)nc3c2N2CCC3CC2)c1`: 25 µM; for `CC(=O)c1oc2nc3c(c(-c4ccc(Cl)cc4)c2c1N)CCc1ccccc1-3`: > 50 µM (inactive).
Then `CN1CCN(C(=O)c2cc(-c3ccn(CC4CC4)n3)n3ccccc23)CC1`, with > 50 µM (inactive); and `Cc1c(-c2nn3c(-c4ccco4)nnc3s2)cccc1[N+](=O)[O-]`, with > 5 µM (inactive).
As for `Oc1ccc(-c2nc3ccc(Cl)cn3c2NC2CCCCC2)cc1`, the IC50 was 29.7 µM.
Then `CC(=O)Nc1ccc(NC(=O)c2cc(-c3cc(C)cc(C)c3O)n[nH]2)cc1`, with 21.8 µM.
Take `Cc1ccccc1Cn1cc(SCC(=O)Nc2ccc3c(c2)OCCO3)c2ccccc21`: the IC50 was > 50 µM (inactive).
The same measure for `CC1CCCN(CCCNC(=O)c2ccc(N3CCc4ccccc43)s2)C1` (stereo not given): > 50 µM (inactive); for `COc1ccc(-c2cc3nc([C@H](C)NC(=O)Cc4ccccc4C)nn3cn2)cc1`: 6.66 µM; for `Cc1ccc2nc(N3CCc4ccccc4C3)c3nncn3c2c1`: > 50 µM (inactive).
Then `O=C(Nc1ccc2c(c1)OCCO2)c1cc(CN2CCOCC2)on1`, with > 50 µM (inactive).
Then `O=C(CNc1nc(Nc2ccccc2F)nc(Nc2ccccc2F)n1)Nc1ccccc1`, with 42 µM; and `O=C(NC1(O)C(=O)c2ccccc2C1=O)c1cccc2c1-c1ccccc1C2=O`, with 35.1 µM.
Take `O=C(CC1C(=O)Nc2nc(-c3ccccc3)nn21)Nc1cccc2ccccc12` (stereo not given): the IC50 was 25 µM.
The same measure for `Cn1c(SCCOc2ccc(Cl)cc2)nnc1-c1ccc2c(c1)OCCO2`: > 50 µM (inactive); for `COc1ccc(CNc2nn3c(-c4cncc(OC)c4)cnc3s2)cc1`: > 50 µM (inactive); for `O=C(Cn1nc2c3c4c(sc3ncn2c1=O)CCCCC4)Nc1ccc(Cl)cc1F`: 17.6 µM.
The same measure for `CC1=C[C@@H](C)CC[C@H]2O[C@@H](C3=C(O)C(=O)C(C)=C4O[C@](O)(C=C43)[C@@H](C)C[C@H](C)C1)[C@H](C)[C@@H](O)[C@H]2C`: 20 µM; for `Cc1c(C(=O)Nc2ccc(-c3nnc4n3CCCCC4)cc2)oc2c1ccc1ccccc12`: > 50 µM (inactive).
On to `COc1ccc(N(CC(=O)Nc2cccc(F)c2)S(=O)(=O)c2ccc(OC)c(OC)c2)cc1`, for which the IC50 was 22.4 µM.
Then `Cc1cc(CSc2ncccc2C(=O)Nc2ccnn2Cc2cccnc2)no1`, with > 50 µM (inactive); and `Cc1cc2nc(Oc3cccc(Cl)c3)c3ccccc3n2n1`, with > 50 µM (inactive).
The same measure for `Fc1ccc(CN2CCc3nc4cccnc4cc3C2)cc1`: > 50 µM (inactive); for `N#Cc1cc(C(=O)c2ccc(Cl)cc2)c[nH]1`: > 50 µM (inactive).
Then `COc1ccc(C(=O)Nc2nc3n(n2)C(c2ccccc2)CC(=O)N3)cc1` (stereo not given), with 18.7 µM.
On to `CC1=C(C(=O)Nc2ccccc2C)C(c2ccc(OCc3ccccc3F)cc2)n2ncnc2N1` (stereo not given), for which the half-inhibitory concentration (IC50) is 24 µM.
The same measure for `Cc1ccccc1-c1noc(-c2ccccc2OCC(=O)NC(C)C)n1`: > 50 µM (inactive); for `CC(=O)Nc1ccc(S(=O)(=O)NCc2ccc(C(=O)NCc3ccc(C)cc3)cc2)cc1`: 25.2 µM.
The same measure for `COc1ccc(CC(=O)Nc2nc(-c3ccco3)c(-c3ccco3)s2)cc1`: > 50 µM (inactive).
The same measure for `O=C(NCc1ccc2c(c1)OCO2)c1cc2c(s1)-c1ccccc1OC2`: 21.7 µM; for `Cn1c(COc2ccccc2)nnc1SCC(=O)Nc1ccc(N2CCOCC2)cc1`: 22.5 µM.
As for `O=C(Nc1nc2c(s1)COCC2)c1cc(-c2ccco2)[nH]n1`, the IC50 was > 50 µM (inactive).
Regarding `Cn1c(=O)c2c(ncn2CC(=O)NC2CCCc3ccccc32)n(C)c1=O` (stereo not given), the IC50 is > 50 µM (inactive).
The same measure for `O=C(NCc1ccc2c(c1)OCO2)c1nnc(Cc2ccc(F)cc2)o1`: > 50 µM (inactive); for `Cc1nc2cc(NC(=O)C3CN(C(=O)c4cnccn4)C3)ccc2s1`: > 50 µM (inactive).
The same measure for `CCc1nc(N2CCCC2=O)sc1C(=O)Nc1cccc(C(C)=O)c1`: > 50 µM (inactive); for `O=c1[nH]c(-c2ccccn2)nc2c1CCN(Cc1cnn(-c3ccccc3)c1)C2`: > 50 µM (inactive); for `CC(C)c1ccc(C(C(=O)NC2CCCCC2)N(C(=O)c2cnccn2)c2cccc(F)c2)cc1` (stereo not given): 47.6 µM.
Then `CCn1cnc2ccc(C(=O)NC3CC3)cc2c1=O`, with > 50 µM (inactive).
Consider `Cc1cnc(CN2CCCC(c3ccc4cn[nH]c4n3)C2)cn1` (stereo not given), for which the IC50 was > 50 µM (inactive).
The same measure for `O=C(Nc1nnc2n1CCCS2)c1cccc(Cl)c1`: > 50 µM (inactive); for `Cc1ccc2c(=O)c(C(=O)Nc3ccccc3)cn(CC(=O)NC3CCCCC3)c2n1`: > 50 µM (inactive).
The same measure for `Cc1ccc(-n2cc(C(=O)NCc3cccnc3)nn2)cc1C`: 26.5 µM; for `O=C(O)c1ccc(C2Cc3c([nH]c(=O)[nH]c3=O)O2)cc1` (stereo not given): 26.5 µM.
The same measure for `Cc1ccc(C(=O)c2cn(CC(=O)Nc3ccccc3)c3ccc(C)cc3c2=O)cc1`: 21.1 µM.
As to `O=C(Cn1cnc(-c2noc(-c3ccncc3)n2)c1)N1CCN(c2ccccc2F)CC1`, the IC50 was > 50 µM (inactive).
The same measure for `Cc1c(C)n(-c2ccccc2)c2ncn(CC(=O)NC(C)c3ccccc3)c(=O)c12` (stereo not given): 21 µM; for `NS(=O)(=O)c1ccc(CNS(=O)(=O)c2ccc(-c3ccccn3)s2)cc1`: 24.7 µM.
In the case of `COCC(C)Nc1ncc(-c2cnccn2)c(-c2ccc(C)s2)n1` (stereo not given), the IC50 was > 50 µM (inactive).
The same measure for `CCn1cc2c(n1)c(=O)n(Cc1ccc(C)cc1)c(=O)n2CC(=O)Nc1ccc(F)cc1`: 22.7 µM; for `COc1ccc(CNC(=O)c2[nH]nc3c2CCc2ccccc2-3)cc1`: > 50 µM (inactive); for `O=C(Cn1cncc(-c2nc(-c3ccccc3)cs2)c1=O)NC1CCCC1`: > 50 µM (inactive).
Then `Cc1cc(C(=O)CN2CCN(Cc3ccc4c(c3)OCO4)CC2)c(C)n1-c1ccc2c(c1)OCO2`, with > 50 µM (inactive); and `O=S(=O)(c1ccccc1)N1CCN2Cc3ccccc3N(Cc3ccccc3)CC2C1` (stereo not given), with > 50 µM (inactive).
The same measure for `CC(C)(C)c1ccc(Cn2nnc3c(=O)[nH]c(C4CCN(S(=O)(=O)c5ccc(S(=O)(=O)NC6CC6)cc5)CC4)nc32)cc1`: > 50 µM (inactive); for `Fc1cc(F)c2[nH]cc(-c3nnnn3-c3ccc4ccccc4c3)c2c1`: 32.6 µM; for `COc1ccc(Cl)c(NC(=O)C2CC(=O)Nc3cc(-c4ccccc4)nn32)c1` (stereo not given): 24.9 µM.
In the case of `CC1CCN(S(=O)(=O)c2ccc3[nH]cc(C(=O)NCc4ccco4)c(=O)c3c2)CC1`, the IC50 is > 50 µM (inactive).
The same measure for `CC(C)(C)C(=O)Nc1ccc(SCc2nnc(-c3ccccc3)o2)cc1`: > 50 µM (inactive); for `O=C1C=CC(O)C2C1CC13SSC4(CC5C(=O)C=CC(O)C5N4C1=O)C(=O)N23` (stereo not given): > 50 µM (inactive).
The same measure for `O=C(Cn1c(=O)n(CC(=O)NC2CCCC2)c(=O)c2ccccc21)Nc1cc(Cl)ccc1Cl`: 12.1 µM.
Then `CN1CCN(c2ccc3nc(-c4ccccc4)c(-c4ccccc4)nc3c2)CC1`, with > 50 µM (inactive); and `COc1cc(-c2cc(C(=O)Nc3cc(C)[nH]n3)c3ccccc3n2)cc(OC)c1OC`, with > 50 µM (inactive); and `NC(=O)C1(N2CCCCC2)CCN(C(=O)c2[nH]nc3c2CCc2ccccc2-3)CC1`, with > 50 µM (inactive).
For the molecule `COc1cc(C)c2c(=O)c3c(oc2c1)C(=O)c1c(O)c(OC)cc(O)c1C3=O`, the IC50 is 2.76 µM.
Consider `Nc1c(C(=O)NCCc2ccccc2)nnn1-c1ccc(F)cc1`, for which the IC50 was > 50 µM (inactive).
